{"source": "patent US11082386B2", "about": "“2′-fluoro-6′-methylene carbocyclic nucleosides and methods of treating viral infections” (UNIVERSITY OF GEORGIA RESEARCH FOUNDATION, INC., priority 2009, dated 2021)", "key": {"[1]": {"system": "HBV genotype C entecavir resistant clone (L180M+M204V+S202G)", "experiment": "anti-HBV activity against entecavir resistant clone in Huh7 cells", "type": "cell-based, Hepatitis B virus", "conditions": "for EC50: Hepatitis B virus, Huh-7; for IC50: HBV genotype C entecavir resistant clone; for IC50 / antiviral potency against the entecavir mutant: Huh7 cells", "excerpt": "(§1) A mono-phosphate prodrug can be useful not only to bypass the rate limiting initial phosphorylation step by the nucleoside kinase, thereby to increase the antiviral potency, but also it may potentially target the liver. Therefore, a phosphoramidite, compound 15P/18P was also synthesized."}, "[2]": {"system": "entecavir resistant HBV mutant (L180M+M204V+S202G)", "experiment": "in vivo study in chimeric mice, entecavir resistant HBV mutant", "conditions": "for viral load down / activity: mice, entecavir resistant HBV mutant (L180M+M204V+S202G); for antiviral activity: preliminary, chimeric mice infected with lamivudine-adeforvir-entecavir triple mutant", "experimental": "(§2) The FMCA monophosphate prodrug compound (15P/18P) was also tested in chimeric mice for activity."}, "[3]": {"system": "lamivudine-resistant mutants including rtM204V/I±rtL180M", "conditions": "literature reference 50; cited from earlier work"}, "wild-type HBV [4]": {"system": "wild-type HBV", "experiment": "intracellular HBV DNA replication assay, wild type", "type": "cell-based, Hepatitis B virus", "experimental": "(§3) In view of the significance of lamivudine- and adefovir-resistant mutations in the clinical application of anti-HBV treatment, the synthesized nucleoside 15/18 was tested against HBV WT as well as lamivudine- and adefovir-resistant mutants."}, "[5]": {"system": "HBV double mutant rtL180M/rtM204V", "experiment": "intracellular HBV DNA replication assay, double mutant", "type": "cell-based, Hepatitis B virus", "experimental": "as §3"}, "[6]": {"system": "HBV rtA181T and rtN236T mutations", "conditions": "cited from earlier work"}, "HBV": {"system": "HBV", "experiment": "standard HBV assay (HBV Assay Results table)", "type": "cell-based, Hepatitis B virus", "experimental": "Drug susceptibility assays were performed as previously described. […]"}, "HBV mutant rtL180M": {"system": "HBV mutant rtL180M", "experiment": "intracellular HBV DNA replication assay, rtL180M", "type": "cell-based, Hepatitis B virus", "conditions": "for EC50 / EC90: Hepatitis B virus", "experimental": "as §3"}, "HepG2 cells": {"system": "HepG2 cells", "experiment": "mitochondrial toxicity by lactic dehydrogenase release", "type": "cell-based", "conditions": "human"}, "HBV mutant rtM204V": {"system": "HBV mutant rtM204V", "experiment": "intracellular HBV DNA replication assay, rtM204V", "type": "cell-based", "conditions": "Hepatitis B virus", "experimental": "as §3"}, "HBV mutant rtM204I": {"system": "HBV mutant rtM204I", "experiment": "intracellular HBV DNA replication assay, rtM204I", "type": "cell-based", "conditions": "Hepatitis B virus", "experimental": "as §3"}, "[7]": {"system": "HBV adefovir mutant rtN236T", "experiment": "intracellular HBV DNA replication assay, adefovir mutant", "type": "cell-based, Hepatitis B virus", "experimental": "as §3"}, "[8]": {"system": "lamivudine-resistant mutants including rtM204V/I±rtL180M", "experiment": "activity against lamivudine-resistant mutants relative to wild type", "type": "cell-based, Hepatitis B virus", "experimental": "as §3"}, "[9]": {"target": "T1, adenosine deaminase from calf thymus (Bos taurus, UniProt P56658)", "T1 construct": "adenosine deaminase from calf thymus; from tissue; host or cells: calf thymus", "T1 sequence (P56658 1-363)": "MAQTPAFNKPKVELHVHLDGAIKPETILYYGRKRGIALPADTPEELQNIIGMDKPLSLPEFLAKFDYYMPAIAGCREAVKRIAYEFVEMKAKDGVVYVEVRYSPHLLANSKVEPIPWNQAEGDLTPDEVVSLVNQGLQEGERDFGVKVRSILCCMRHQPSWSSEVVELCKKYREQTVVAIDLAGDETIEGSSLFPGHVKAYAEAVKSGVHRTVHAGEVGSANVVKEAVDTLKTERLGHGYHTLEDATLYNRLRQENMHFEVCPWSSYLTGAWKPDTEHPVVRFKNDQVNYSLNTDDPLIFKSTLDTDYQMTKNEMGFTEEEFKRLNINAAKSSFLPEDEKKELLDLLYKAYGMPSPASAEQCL", "experiment": "deamination study with adenosine deaminase", "type": "in vitro ADME"}, "[10]": {"experiment": "cytotoxicity / cellular toxicity (CC50)", "conditions": "Table 2", "experimental": "Drug susceptibility assays were performed as previously described. Cytotoxicity assays in PBM, CEM and Vero cells were conducted as previously described. […] These compounds were tested in a standard HBV assay in the laboratory of Dr. Brent Korba."}, "WT HBV": {"system": "WT HBV", "experiment": "anti-HBV activity against wild type in Huh7 cells (Table 2)", "type": "cell-based, Hepatitis B virus", "excerpt": "as §1"}, "wild-type HBV [11]": {"system": "wild-type HBV", "experiment": "in vivo study in chimeric mice, wild-type HBV", "experimental": "as §2"}, "[12]": {"conditions": "rtN236T, compared with adefovir"}}, "note": "“Also recorded” adds a separate entry of the source. Like-named read-outs stand apart in the source and are kept apart here."}
{"compound": "C=C1[C@H](CO)[C@@H](O)C[C@@H]1n1cnc2c(=O)[nH]c(N)nc21", "note": "[entecavir]", "values": [{"measurement": "EC50", "setting": "[1]", "value": 1.2, "unit": "µM"}, {"measurement": "viral load down / activity", "setting": "[2]; listed as ETV", "value": "inactive; also recorded: not active"}, {"measurement": "antiviral activity", "setting": "[2]", "value": "did not"}, {"measurement": "fold loss of activity against lamivudine-resistant mutants", "setting": "[3]", "value": 8, "unit": "fold"}]}
{"compound": "(+)-(1R,2R,3R,5R)-3-(6-amino-9H-9-purinyl)-2-fluoro-5-(hydroxymethyl)-4-methylenecyclopentan-1-ol [Compound 15/18]", "values": [{"measurement": "IC50", "setting": "[1]", "value": 0.054, "unit": "µM"}]}
{"compound": "Nc1ncnc2c1ncn2CCOCP(=O)(O)O", "note": "[adefovir, reference compound]", "values": [{"measurement": "EC90", "setting": "wild-type HBV [4]; HBV-WT, inhibition of 90% of HBV DNA, read-out: EC90", "value": 7.1, "unit": "µM"}, {"measurement": "EC50", "setting": "[5]; double mutant rtL180M/rtM204V, read-out: EC50", "value": 2.2, "unit": "µM"}, {"measurement": "EC90", "setting": "[5]; double mutant rtL180M/rtM204V, read-out: EC90", "value": 8.5, "unit": "µM"}, {"measurement": "increase in median effective concentration", "setting": "[6]", "value": "two-fold to nine-fold"}]}
{"compound": "Nc1ccn([C@@H]2CS[C@H](CO)O2)c(=O)n1", "note": "[lamivudine, reference compound]", "values": [{"measurement": "EC50", "setting": "HBV; Hepatitis B virus, read-out: Control: 3TC EC50", "value": 2420, "unit": "µM"}, {"measurement": "EC50", "setting": "HBV mutant rtL180M", "value": 1.5, "unit": "µM"}, {"measurement": "EC90", "setting": "HBV mutant rtL180M", "value": 22, "unit": "µM"}, {"measurement": "mitochondrial toxicity (lactic dehydrogenase release)", "setting": "HepG2 cells", "value": "did not exhibit any significant toxicity up to 100 μM"}]}
{"compound": "C=C1[C@@H](n2cnc3c(N)ncnc32)[C@@H](F)[C@H](O)[C@H]1CO", "note": "[Compound 15/18, (+)-(1R,2R,3R,5R)-3-(6-amino-9H-9-purinyl)-2-fluoro-5-(hydroxymethyl)-4-methylenecyclopentan-1-ol]", "values": [{"measurement": "EC90", "setting": "wild-type HBV [4]; Hepatitis B virus", "value": 4.5, "unit": "µM"}, {"measurement": "EC50", "setting": "wild-type HBV [4]; Hepatitis B virus, HBV-WT, inhibition of 50% of HBV DNA", "value": 1.5, "unit": "µM"}, {"measurement": "fold more potent than adefovir in EC90", "setting": "wild-type HBV [4]; wild-type HBV", "value": 1.5, "unit": "fold"}, {"measurement": "fold less potent than lamivudine", "setting": "wild-type HBV [4]; wild-type HBV, EC50", "value": 7, "unit": "fold"}, {"measurement": "EC50", "setting": "HBV mutant rtM204V", "value": 1.8, "unit": "µM"}, {"measurement": "EC50", "setting": "HBV mutant rtM204I", "value": 1, "unit": "µM"}, {"measurement": "EC50", "setting": "HBV mutant rtL180M", "value": 2.1, "unit": "µM"}, {"measurement": "EC90", "setting": "HBV mutant rtL180M", "value": 5.1, "unit": "µM"}, {"measurement": "fold increased antiviral activity in EC90 versus lamivudine", "setting": "HBV mutant rtL180M; rtL180M", "value": 4.3, "unit": "fold"}, {"measurement": "EC50", "setting": "[5]; Hepatitis B virus", "value": 2.2, "unit": "µM"}, {"measurement": "EC90", "setting": "[5]; Hepatitis B virus", "value": 5.5, "unit": "µM"}, {"measurement": "EC50", "setting": "[7]; Hepatitis B virus", "value": 1.7, "unit": "µM"}, {"measurement": "EC90", "setting": "[7]; Hepatitis B virus", "value": 4.6, "unit": "µM"}, {"measurement": "fold enhanced EC50 value", "setting": "[7]; [12]", "value": 4.5, "unit": "fold"}, {"measurement": "fold more favorable EC90 value", "setting": "[7]; [12]", "value": 7.8, "unit": "fold"}, {"measurement": "cross-resistance to tested lamivudine-resistant mutants", "setting": "[8]", "value": "not cross-resistant"}, {"measurement": "fold increase against lamivudine-resistant mutants", "setting": "[8]; rtM204V/I±rtL180M versus wild type", "value": "1.0-1.2 fold"}, {"measurement": "EC50", "setting": "[1]", "value": 0.67, "unit": "µM"}, {"measurement": "antiviral potency against the entecavir mutant", "setting": "[1]", "value": "still maintain the antiviral potency"}, {"measurement": "mitochondrial toxicity (lactic dehydrogenase release)", "setting": "HepG2 cells", "value": "did not exhibit any significant toxicity up to 100 μM"}, {"measurement": "stability against adenosine deaminase", "setting": "[9]", "value": "completely stable"}]}
{"compound": "C=C1C(COP(=O)(N[C@@H](C)C(=O)OC)Oc2ccccc2)C(O)C(F)C1n1cnc2c(N)ncnc21", "note": "(stereo partly shown) [Compound 15P/18P]", "values": [{"measurement": "times more active than the compound where R1 and R1a are H", "setting": "HBV; prodrug versus parent 15/18", "value": "more than 10 times"}, {"measurement": "cellular toxicity in comparison to parent 15/18", "setting": "[10]", "value": "without significant increase of cellular toxicity"}, {"measurement": "IC50", "setting": "[1]", "value": 0.05, "unit": "µM"}, {"measurement": "antiviral potency against the entecavir mutant", "setting": "[1]", "value": "still maintain the antiviral potency"}, {"measurement": "fold enhancement of anti-HBV potency in EC50 versus parent 15/18", "setting": "WT HBV", "value": 7, "unit": "fold"}, {"measurement": "fold enhancement of anti-HBV potency in EC90 versus parent 15/18", "setting": "WT HBV", "value": 13, "unit": "fold"}, {"measurement": "viral load down", "setting": "wild-type HBV [11]", "value": 2, "unit": "log"}, {"measurement": "viral load down / activity", "setting": "[2]", "value": 1, "unit": "log"}, {"measurement": "antiviral activity", "setting": "[2]", "value": "exhibited antiviral activity"}]}
